Reference: PMC4092090, “Investigation of a MMP-2 Activity-Dependent Anchoring Probe for Nuclear Imaging of Cancer” (PLoS ONE, 2014)

Columns and labels:
[1] = assay type: physicochemical; conditions: pH 7.4
Description: The experimental determination of probe partition coefficients (log P values) was performed in 1-octanol and 0.02 M phosphate buffer pH 7.4 where the two phases were pre-saturated with each other. 1-Octanol (200 µl) and phosphate buffer (200 µl) were pipetted into LoBind Eppendorf tubes containing 0.37 MBq of probes. The tube was vortexed for 10 seconds, and centrifuged (5 min, 4000×g). Aliquots (50 µl) from the 1-octanol and buffer phases were transferred into two test tubes for radioactivity counting with a NaI well-type scintillation counter (1470 WIZARD, Perkin Elmer, Kanagawa, Japan). The partition coefficient was calculated using the equation P = (counts/µl in 1-octanol)/(counts/µl in buffer).

[2] = biological target: T1, Human-recombinant MMP-2 protein (Homo sapiens, UniProt P08253); test: Cleavage assay; assay type: biochemical; conditions: activated MMP-2 1–5 nM, 370 kBq probe, 37°C, 2 hr, pH 7.5 assay buffer, RP-HPLC, Fig. 3b
T1 construct: purchased R & D Systems, Inc. 902-MP-010
T1 sequence (P08253 110-660): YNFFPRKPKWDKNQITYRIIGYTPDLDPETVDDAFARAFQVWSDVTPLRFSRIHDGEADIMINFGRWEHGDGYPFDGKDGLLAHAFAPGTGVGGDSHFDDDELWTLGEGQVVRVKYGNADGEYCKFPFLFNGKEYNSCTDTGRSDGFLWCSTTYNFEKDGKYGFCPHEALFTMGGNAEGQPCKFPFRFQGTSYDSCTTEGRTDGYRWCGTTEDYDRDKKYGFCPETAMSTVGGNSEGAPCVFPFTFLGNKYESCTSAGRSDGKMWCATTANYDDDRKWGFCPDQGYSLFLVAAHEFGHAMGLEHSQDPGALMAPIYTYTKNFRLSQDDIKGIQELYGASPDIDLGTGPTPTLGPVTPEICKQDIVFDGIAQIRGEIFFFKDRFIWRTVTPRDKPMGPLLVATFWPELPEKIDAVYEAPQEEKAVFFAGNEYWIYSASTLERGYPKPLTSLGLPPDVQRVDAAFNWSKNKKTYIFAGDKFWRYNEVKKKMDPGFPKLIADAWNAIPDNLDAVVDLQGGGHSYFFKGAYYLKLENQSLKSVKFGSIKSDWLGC
Description: Human-recombinant MMP-2 protein (902-MP-010, R & D Systems, Inc., Minneapolis, MN USA) was activated with p-aminophenylmercuric acetate (1 mM) in assay buffer (50 mM Tris-HCl, 150 mM NaCl, 10 mM CaCl2, 5 µM ZnCl2, 0.02% Brij 35, pH 7.5). MDAP1000, MDAP3000, and MDAP5000 (370 kBq) were incubated at 37°C for 2 hr with activated MMP-2 (1–5 nM) and a MMP inhibitor (0 or 100 µM, GM6001, Merck KGaA, Darmstadt, Germany). The reaction was quenched by addition of methanol, and the percentage of cleaved peptide was estimated by RP-HPLC.

[3] = system: HT1080 human fibrosarcoma cells; test: Cellular uptake study; assay type: cell-based; conditions: for Cellular accumulation (radioactivity in tumor cells): 5×10^5 HT1080 cells, FBS-free DMEM, 37 kBq probe, 30 min incubation, radioactivity counting, Fig. 3a
Description: HT1080 human fibrosarcoma cells were purchased from American Type Culture Collection (ATCC, Manassas, VA USA) and cultured in DMEM with low glucose (Invitrogen), 10% fetal bovine serum (FBS), and penicillin/streptomycin. MMP-2 cDNA was cloned into the pENTR vector (Invitrogen) and inserted into the pLenti6 vector (Invitrogen) as previously described, [7]. […] Protein quantitation was performed by BCA protein assay (Thermo Fisher Scientific, Inc. Rockford, IL USA). The cellular uptake study of MDAP3000 pretreated with activated MMP-2 (63 nM) in the presence or absence of GM6001 (100 µM) was performed as described above.

Row | Substance | log P (partition coefficient) [1] | Cleavage by MMP-2 [2] | Cellular accumulation (radioactivity in tumor cells) [3] | Increased cellular uptake of MMP-2 pretreated probe with additional MMP inhibitor ([3]; HT1080 cells, activated MMP-2 (63 nM) plus GM6001 (100 µM), Fig. 3c) | Cellular accumulation of probe pretreated with MMP-2 ([3]; HT1080 cells, probe pretreated with activated MMP-2 (63 nM), 30 min, Fig. 3c)
1 | Palmitoyl-Dap(p-SCN-Bn-DTPA-^111In)-10-Adc-Gly-Pro-Leu-Gly-Val-Arg-Gly-Lys(ivDde)-PEG1000 [MDAP1000] | −0.56±0.13 | concentration-dependent manner | high radioactivity accumulation |  | 
2 | Palmitoyl-Dap(p-SCN-Bn-DTPA-^111In)-10-Adc-Gly-Pro-Leu-Gly-Val-Arg-Gly-Lys(ivDde)-PEG3000 [MDAP3000] | −0.95±0.12 | concentration-dependent manner | significantly lower radioactivity | completely blocked | accumulated in cells to higher levels
